Assay [1] concerns the target soluble human BACE1 catalytic domain (Homo sapiens (Human), UniProt P56817). Put plainly: BACE1 HTRF FRET Assay. The note with it: read-out: BACE1 Ki. (In TR-FRET formats the signal depends on donor and acceptor labels being close together.)
Assay [2] concerns the target purified human autoBACE-2 (Homo sapiens (Human), UniProt Q9Y5Z0). Put plainly: BACE-2 Assay (BACE-HTRF assay). Format: biochemical. The following applies: Ki calculated from IC50 using the Cheng-Prusoff equation; read-out: BACE2 Ki. The gist of the method: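 Endpoint proteolysis of a QSY7/europium FRET peptide by purified human autoBACE-2, 5% DMSO final, read by time-resolved fluorescence at 620 nm after 320 nm excitation.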

[3] abbreviates: Ki calculated from IC50 using the Cheng-Prusoff equation.

pKi: −log10 of the molar value. Read-outs that look alike come from different tables or passages of the source. Bounds are passed on as bounds.

soluble human BACE1 catalytic domain, sequence (P56817 75-416): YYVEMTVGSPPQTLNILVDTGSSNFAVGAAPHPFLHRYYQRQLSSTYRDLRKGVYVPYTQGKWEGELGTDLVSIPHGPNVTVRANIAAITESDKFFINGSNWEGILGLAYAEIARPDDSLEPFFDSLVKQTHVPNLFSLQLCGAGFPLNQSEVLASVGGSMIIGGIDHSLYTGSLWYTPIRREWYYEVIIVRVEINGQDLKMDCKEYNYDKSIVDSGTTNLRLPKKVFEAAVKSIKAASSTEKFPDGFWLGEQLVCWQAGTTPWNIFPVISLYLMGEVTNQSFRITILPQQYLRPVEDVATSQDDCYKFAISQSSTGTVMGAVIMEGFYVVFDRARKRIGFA
purified human autoBACE-2, sequence (Q9Y5Z0 63-473): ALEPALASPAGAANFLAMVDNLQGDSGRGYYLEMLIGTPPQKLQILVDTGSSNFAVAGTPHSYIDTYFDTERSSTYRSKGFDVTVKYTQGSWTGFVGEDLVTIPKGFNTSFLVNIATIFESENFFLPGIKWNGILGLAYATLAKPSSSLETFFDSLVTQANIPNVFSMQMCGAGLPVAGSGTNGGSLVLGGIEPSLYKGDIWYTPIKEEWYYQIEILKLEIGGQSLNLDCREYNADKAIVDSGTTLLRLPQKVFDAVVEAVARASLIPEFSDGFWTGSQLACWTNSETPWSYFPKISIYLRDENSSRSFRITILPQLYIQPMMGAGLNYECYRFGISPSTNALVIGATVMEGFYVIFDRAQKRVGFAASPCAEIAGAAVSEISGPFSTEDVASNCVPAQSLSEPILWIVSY

The term pKi denotes the Ki on a negative log10 scale, so that one unit is a factor of ten. As for `COc1cnc(C(=O)Nc2ccc(F)c([C@]3(C)CS(=O)(=O)C(C)(C)C(=N)N3)c2F)cn1` [Example 9z], the pKi was 7.28 in assay [1] (setting [3]) and 7.23 in assay [2].
For `CC1(C)C(=N)N[C@](C)(c2cc(NC(=O)c3cocn3)cc(F)c2F)CS1(=O)=O` [Example 9bu], the pKi in assay [1] (setting [3]) is 7.38; in assay [2], 8.30.
Turning to `COc1ccc(C(=O)Nc2ccc(F)c([C@]3(C)CS(=O)(=O)[C@](C)(C(C)C)C(=N)N3)c2)nc1` [Example 9eb-b], the pKi in assay [1] (setting [3]) is 6.59; in assay [2], 6.15 to 7.00.
Taken in the same sequence, the figures for `CC1(C)C(=N)N[C@](C)(c2cc(NC(=N)c3ncc(F)cc3F)ccc2F)CS1(=O)=O` [Example 9ef] were 6.00 and 6.66.
As for `CC1(C)C(=N)N[C@](C)(c2cc(Nc3noc4cc(F)cnc34)ccc2F)CS1(=O)=O` [Example 30b], the pKi in assay [1] was 7.66; in assay [2], 8.30.
In the case of `COc1cnc(C(=O)Nc2ccc(F)c([C@]3(C)CS(=O)(=O)[C@](C)(CC(F)(F)F)C(=N)N3)c2)cn1` [Example 9dr-b], the pKi is 6.86 in assay [1] (setting [3]) and 6.15 to 7.00 in assay [2].
On to `COc1cnc(C(=O)Nc2ccc(F)c([C@]3(C)CS(=O)(=O)[C@@](C)(c4ccccn4)C(=N)N3)c2)cn1` [Example 9cy-a], for which the pKi in assay [1] (setting [3]) was 8.16; in assay [2], 7.00 to 7.96.
For the molecule `CC(C)[C@]1(C)C(=N)N[C@](C)(c2cc(NC(=O)c3ccc(F)cn3)ccc2F)CS1(=O)=O` [Example 9ea-b], the values for the pKi in assay [1] (setting [3]) and in assay [2] were 6.65 and 7.00 to 7.96, respectively.
In the case of `CCC1C(=N)N[C@](C)(c2cc(NC(=O)c3ccc(F)cn3)ccc2F)CS1(=O)=O` (stereo partly shown) [Example 9ca], the pKi was 7.48 in assay [1] (setting [3]) and 8.05 in assay [2].
`CC1(C)C(=N)N[C@](C)(c2sc(C(=O)NCc3cccc(-c4ccon4)c3)cc2Cl)CS1(=O)=O` [Example 22g]: the pKi in assay [1] (setting [3]) was 6.13; in assay [2] it was 7.29.
Turning to `COc1ccc(C(=O)Nc2ccc(F)c([C@]3(C)CS(=O)(=O)C(C)(C)C(=N)N3)c2F)nc1` [Example 9y], the pKi was 7.36 in assay [1] (setting [3]) and 7.96 in assay [2].
For `C[C@@]1(c2ccc(F)cc2F)CS(=O)(=O)[C@@](C)(c2cccc(Br)c2)C(=N)N1` [Example 32g-a], the pKi in assay [1] was 6.42; in assay [2], 6.84.
With `C[C@@]1(c2ccc(F)cc2F)CS(=O)(=O)[C@@](C)(c2cccc(C(F)(F)F)c2)C(=N)N1` [Example 32h-a], the pKi is 6.44 in assay [1] and 6.90 in assay [2].
`CC1(C)C(=N)N[C@](C)(c2cc(NC(=O)c3ccc(Cl)cc3)cc(F)c2F)CS1(=O)=O` [Example 9bi]: the pKi is 7.66 in assay [1] (setting [3]) and 8.05 in assay [2].
As for `CC1(C)C(=N)N[C@](C)(c2cc(NC(=O)c3ccno3)ccc2F)CS1(=O)=O` [Example 9ax], the pKi in assay [1] (setting [3]) is 7.09; in assay [2] it was 7.66.
On to `CC1(C)C(=N)N[C@](C)(c2sc(-c3cccc(-c4ncon4)c3)cc2F)CS1(=O)=O` [Example 27ao], for which the pKi in assay [1] was 7.00; in assay [2], not below 7.70.
With `C[C@@]1(c2ccccn2)C(=N)N[C@](C)(c2cc(NC(=O)c3ccc(Cl)cn3)ccc2F)CS1(=O)=O` [Example 9cw-b], the pKi was 7.14 in assay [1] (setting [3]) and 7.00 to 7.96 in assay [2].
For `COc1cnc(C(=O)Nc2ccc(F)c([C@]3(C)CS(=O)(=O)C(C)(C)C(=N)N3)n2)cn1` [Example 9cg] the same measures were 7.03 and 7.07.
For `COc1ccc(C(=O)Nc2ccc(F)c([C@]3(C)CS(=O)(=O)[C@@](C)(c4cccc(F)c4)C(=N)N3)c2)nc1` [Example 9dc-a] the same measures were 8.52 and 7.00 to 7.96.
For `COc1cccc2cc(C(=O)Nc3ccc(F)c([C@]4(C)CS(=O)(=O)[C@@](C)(CC5CCOCC5)C(=N)N4)c3)[nH]c12` [Example 9cu-a] the same measures were 7.33 and 7.00 to 7.96.

Values taken from patent US9499502B2, “5-substituted iminothiazines and their mono- and dioxides as BACE inhibitors, compositions, and their use” (Merck Sharp & Dohme Corp., priority 2011, dated 2016).
